The source of these data is patent publication US8623862B2, “Derivatives of N-[(1H-pyrazol-1-yl)aryl]-1H-indole or 1H-indazole-3-carboxamide, preparation thereof and applications thereof in therapeutics” (Sanofi, priority 2011, dated 2014).

This test has as its system platelet aggregation. As to the kind of experiment: Inhibition of platelet aggregation in vitro (rat blood).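 Further: aggregation induced by ADP added as 4 µL of a 250 µM solution.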 Format: cell-based. To be noted: rat blood, in vitro; read-out: Inhibition of platelet aggregation in vitro (rat blood). On the procedure: The measurements of platelet aggregation are performed at 37° C. in glass tubes (Chrono-Log—Kordia aggregometer).
Inhibition of Platelet Aggregation In Vitro (Rat Blood)
The blood is taken from male rats of the Sprague-Dawley strain, weighing 250-300 g.
The platelet-rich plasma (PRP) is obtained by centrifugation of the blood at 300 g for 5 minutes, and the measurements of platelet aggregation are performed as described above.
The results are calculated using the area under the curve of absorbance measured for 6 minutes, and expressed as percentage inhibition.

With `CCCC(=O)c1cnn(-c2ccc(NC(=O)c3cn(CC(=O)N(C)CCN(C)C)c4cc(C)c(C)cc34)cc2)c1C` [Compound 110], the IC50 turned out to be 3990 nM.

For the compound `CCCC(=O)c1cnn(-c2ccc(NC(=O)c3cn(CC(=O)N4CCN(C)CC4)c4cc(Cl)c(Cl)cc34)cc2)c1C` [Compound 111], the IC50 turned out to be 3700 nM.

As for `CCCC(=O)c1cnn(-c2ccc(NC(=O)c3cn(CC(=O)N4CCN(C)CC4)c4cc(C)c(Br)cc34)cc2)c1C` [Compound 112], the IC50 amounted to 360 nM.

Turning to `CCCC(=O)c1cnn(-c2ccc(NC(=O)c3cn(CC(=O)N4CCN(C)CC4)c4cc(C)c(Cl)cc34)cc2)c1C` [Compound 113], the IC50 was determined as 620 nM.

Turning to `CCCC(=O)c1cnn(-c2ccc(NC(=O)c3cn(CC(=O)N4CCN(C)CC4)c4ccc(C)cc34)cc2)c1C` [Compound 114], the IC50 is 270 nM.

Regarding `CCCC(=O)c1cnn(-c2ccc(NC(=O)c3cn(CC(=O)N4CCN(CCO)CC4)c4ccc(C)cc34)cc2)c1C` [Compound 116], the IC50 is 260 nM.

As to `CCCC(=O)c1cnn(-c2ccc(NC(=O)c3cn(CC(=O)N4CCN(CC)CC4)c4ccc(C)cc34)cc2)c1C` [Compound 117], the IC50 stood at 500 nM.

Regarding `CCCC(=O)c1cnn(-c2ccc(NC(=O)c3cn(CC(=O)N4CCN(CC(F)F)CC4)c4ccc(C)cc34)cc2)c1C` [Compound 118], the IC50 is 290 nM.

For the compound `CCCC(=O)c1cnn(-c2ccc(NC(=O)c3cn(CC(=O)N4CCC(N(C)C)C4)c4ccc(C)cc34)cc2)c1C` (stereo not drawn) [Compound 120], the IC50 came out at 270 nM.

For the compound `CCCC(=O)c1cnn(-c2ccc(NC(=O)c3cn(CC(=O)N4CCN(CC5CC5)CC4)c4ccc(C)cc34)cc2)c1C` [Compound 121], the IC50 was 1060 nM.

Regarding `CCCC(=O)c1cnn(-c2ccc(NC(=O)c3cn(CC(=O)N4CCN(C5CC5)CC4)c4ccc(C)cc34)cc2)c1C` [Compound 122], the IC50 was determined as 450 nM.

On to `CCCC(=O)c1cnn(-c2ccc(NC(=O)c3cn(CC(=O)N4CCN5CCCC5C4)c4ccc(C)cc34)cc2)c1C` (stereo not drawn) [Compound 123], for which the IC50 amounted to 350 nM.

Turning to `CCCC(=O)c1cnn(-c2ccc(NC(=O)c3cn(CC(=O)N4CCN(C(C)C)CC4)c4ccc(C)cc34)cc2)c1C` [Compound 124], the IC50 came to 210 nM.

Turning to `CCCC(=O)c1cnn(-c2ccc(NC(=O)c3cn(CC(=O)N4CCCC(N(C)C)C4)c4ccc(C)cc34)cc2)c1C` (stereo not drawn) [Compound 125], the IC50 was found to be 580 nM.

On to `CCCC(=O)c1cnn(-c2ccc(NC(=O)c3cn(CC(=O)N(C)CCNC)c4ccc(C)cc34)cc2)c1C` [Compound 126], for which the IC50 was 760 nM.

`CCCC(=O)c1cnn(-c2ccc(NC(=O)c3cn(CC(=O)N4CCOCC4)c4ccc(C)cc34)cc2)c1C` [Compound 128]: the IC50 was found to be 290 nM.

Take `CCCC(=O)c1cnn(-c2ccc(NC(=O)c3cn(CC(=O)N4CCN(CC(F)(F)F)CC4)c4ccc(C)cc34)cc2)c1C` [Compound 129]: the IC50 stood at 650 nM.

As for `CCCC(=O)c1cnn(-c2ccc(NC(=O)c3cn(CC(=O)N4CCCN(C)CC4)c4ccc(C)cc34)cc2)c1C` [Compound 130], the IC50 amounted to 470 nM.

Regarding `CCCC(=O)c1cnn(-c2ccc(NC(=O)c3cn(CC(=O)NCCn4ccnc4)c4ccc(C)cc34)cc2)c1C` [Compound 134], the IC50 amounted to 950 nM.

For `CCCC(=O)c1cnn(-c2ccc(NC(=O)c3cn(CC(=O)N4CCN(C)CC4)c4ccc(OC)cc34)cc2)c1C` [Compound 136], the IC50 was 400 nM.

For the compound `CCCC(=O)c1cnn(-c2ccc(NC(=O)c3cn(CC(=O)N4CCCCC4CN4CCCC4)c4ccc(C)cc34)cc2)c1C` (stereo not drawn) [Compound 141], the IC50 stood at 640 nM.

As for `CCCC(=O)c1cnn(-c2ccc(NC(=O)c3cn(CC(=O)N4CCN(CCOCCO)CC4)c4ccc(Cl)cc34)cc2)c1C` [Compound 144], the IC50 was 190 nM.

Regarding `CCCC(=O)c1cnn(-c2ccc(NC(=O)c3cn(CC(=O)N4CCN(CCO)CC4)c4ccc(Cl)cc34)cc2)c1C` [Compound 146], the IC50 was found to be 100 nM.

Turning to `CCCC(=O)c1cnn(-c2ccc(NC(=O)c3cn(CC(=O)N4CCN(CCS(C)(=O)=O)CC4)c4ccc(Cl)cc34)cc2)c1C` [Compound 148], the IC50 turned out to be 150 nM.

Regarding `CCCC(=O)c1cnn(-c2ccc(NC(=O)c3cn(CC(=O)N4CCC(N5CCOCC5)CC4)c4ccc(Cl)cc34)cc2)c1C` [Compound 149], the IC50 was 410 nM.

For the compound `CCCC(=O)c1cnn(-c2ccc(NC(=O)c3cn(CC(=O)N4CCN(CCN(C)C)CC4)c4ccc(Cl)cc34)cc2)c1C` [Compound 150], the IC50 was 240 nM.

Turning to `CCCCN1CCN(C(=O)Cn2cc(C(=O)Nc3ccc(-n4ncc(C(=O)CCC)c4C)cc3)c3cc(Cl)ccc32)CC1` [Compound 151], the IC50 was 250 nM.

For `CCCC(=O)c1cnn(-c2ccc(NC(=O)c3cn(CC(=O)N4CCN(CCC(=O)OCC)CC4)c4ccc(Cl)cc34)cc2)c1C` [Compound 153], the IC50 amounted to 290 nM.

On to `CCCC(=O)c1cnn(-c2ccc(NC(=O)c3cn(CC(=O)N4CCN(CC(=O)N(C)C)CC4)c4ccc(Cl)cc34)cc2)c1C` [Compound 154], for which the IC50 was found to be 150 nM.

On to `CCCC(=O)c1cnn(-c2ccc(NC(=O)c3cn(CC(=O)N4CCN(CC(=O)OCC)CC4)c4ccc(Cl)cc34)cc2)c1C` [Compound 155], for which the IC50 turned out to be 260 nM.

On to `CCCC(=O)c1cnn(-c2ccc(NC(=O)c3cn(CC(=O)N4CCN(CCC)CC4)c4ccc(Cl)cc34)cc2)c1C` [Compound 156], for which the IC50 was found to be 300 nM.

Turning to `CCCC(=O)c1cnn(-c2ccc(NC(=O)c3cn(CC(=O)N4CCN(C)CC4)c4cc(F)c(Cl)cc34)cc2)c1C` [Compound 157], the IC50 stood at 180 nM.

On to `CCCC(=O)c1cnn(-c2ccc(NC(=O)c3cn(CC(=O)N4CCN(CCOC)CC4)c4cc(F)c(Cl)cc34)cc2)c1C` [Compound 158], for which the IC50 came out at 340 nM.

For the compound `CCCC(=O)c1cnn(-c2ccc(NC(=O)c3cn(CC(=O)N4CC(C)NC(C)C4)c4ccc(Cl)cc34)cc2)c1C` (stereo not drawn) [Compound 159], the IC50 stood at 410 nM.

Regarding `CCCC(=O)c1cnn(-c2ccc(NC(=O)c3cn(CC(=O)N4CCN(C)CC4)c4ccc(C#N)cc34)cc2)c1C` [Compound 160], the IC50 was found to be 1380 nM.

For `CCCC(=O)c1cnn(-c2ccc(NC(=O)c3cn(CC(=O)N4CCN(CCOCC)CC4)c4ccc(Cl)cc34)cc2)c1C` [Compound 161], the IC50 is 370 nM.

Consider `CCCC(=O)c1cnn(-c2ccc(NC(=O)c3cn(CC(=O)N4CCN(CC(=O)NC)CC4)c4ccc(Cl)cc34)cc2)c1C` [Compound 163], for which the IC50 was found to be 290 nM.

Consider `CCCC(=O)c1cnn(-c2ccc(NC(=O)c3cn(CC(=O)N4CCN(Cc5cccs5)CC4)c4ccc(C)cc34)cc2)c1C` [Compound 164], for which the IC50 is 1010 nM.

With `CCCC(=O)c1cnn(-c2ccc(NC(=O)c3cn(CC(=O)N4CCN(Cc5ccc(F)cc5)CC4)c4ccc(Cl)cc34)cc2)c1C` [Compound 165], the IC50 was 310 nM.

Take `CCCC(=O)c1cnn(-c2ccc(NC(=O)c3cn(CC(=O)N4CCN(Cc5ccc(Cl)cc5)CC4)c4ccc(Cl)cc34)cc2)c1C` [Compound 167]: the IC50 worked out at 470 nM.

As to `CCCC(=O)c1cnn(-c2ccc(NC(=O)c3cn(CC(=O)N4CCN(Cc5ccccc5OC)CC4)c4ccc(Cl)cc34)cc2)c1C` [Compound 168], the IC50 was found to be 370 nM.

Regarding `CCCC(=O)c1cnn(-c2ccc(NC(=O)c3cn(CC(=O)N(C)C4CCS(=O)(=O)C4)c4ccc(Cl)cc34)cc2)c1C` (stereo not drawn) [Compound 169], the IC50 came to 400 nM.

For `CCCC(=O)c1cnn(-c2ccc(NC(=O)c3cn(CC(=O)N4CC(O)CC4C(=O)NC4CCC4)c4ccc(Cl)cc34)cc2)c1C` (stereo not drawn) [Compound 171], the IC50 came out at 570 nM.

As to `CCCC(=O)c1cnn(-c2ccc(NC(=O)c3cn(CC(=O)N4CCn5ccnc5C4)c4ccc(Cl)cc34)cc2)c1C` [Compound 172], the IC50 stood at 330 nM.

With `CCCC(=O)c1cnn(-c2ccc(NC(=O)c3cn(CC(=O)N4CCc5[nH]ncc5C4)c4ccc(Cl)cc34)cc2)c1C` [Compound 173], the IC50 stood at 170 nM.

Regarding `CCCC(=O)c1cnn(-c2ccc(NC(=O)c3cn(CC(=O)N4Cc5cnn(C)c5C4)c4ccc(Cl)cc34)cc2)c1C` [Compound 174], the IC50 stood at 490 nM.

`CCCC(=O)c1cnn(-c2ccc(NC(=O)c3cn(CC(=O)N4Cc5c[nH]nc5C4)c4ccc(Cl)cc34)cc2)c1C` [Compound 175]: the IC50 turned out to be 290 nM.

Consider `CCCC(=O)c1cnn(-c2ccc(NC(=O)c3cn(CC(=O)N4CC(O)C4)c4ccc(Cl)cc34)cc2)c1C` [Compound 176], for which the IC50 came to 390 nM.

With `CCCC(=O)c1cnn(-c2ccc(NC(=O)c3cn(CC(=O)N(C)C)c4ccc(N(C)C)cc34)cc2)c1C` [Compound 178], the IC50 came to 500 nM.

In the case of `CCCC(=O)c1cnn(-c2ccc(NC(=O)c3cn(CC(=O)N4CCN(C(C)(C)CO)CC4)c4ccc(Cl)cc34)cc2)c1C` [Compound 181], the IC50 was determined as 180 nM.

For the compound `CCCC(=O)c1cnn(-c2ccc(NC(=O)c3cn(CC(=O)N4CCn5cnnc5C4)c4ccc(Cl)cc34)cc2)c1C` [Compound 182], the IC50 came out at 270 nM.

Consider `CCCC(=O)c1cnn(-c2ccc(NC(=O)c3cn(CC(=O)N4CCN5C(=O)CCC5C4)c4ccc(Cl)cc34)cc2)c1C` (stereo not drawn) [Compound 183], for which the IC50 came to 230 nM.

For `CCCC(=O)c1cnn(-c2ccc(NC(=O)c3cn(CC(=O)N4CCN(C)C(=O)C4)c4ccc(Cl)cc34)cc2)c1C` [Compound 184], the IC50 turned out to be 170 nM.

Consider `CCCC(=O)c1cnn(-c2ccc(NC(=O)c3cn(CC(=O)N4CCN(C)C(C)(C)C4)c4ccc(Cl)cc34)cc2)c1C` [Compound 186], for which the IC50 turned out to be 250 nM.

Take `CCCC(=O)c1cnn(-c2ccc(NC(=O)c3cn(CC(=O)N4Cc5cccnc5C4)c4ccc(Cl)cc34)cc2)c1C` [Compound 187]: the IC50 worked out at 610 nM.

In the case of `CCCC(=O)c1cnn(-c2ccc(NC(=O)c3cn(CC(=O)N4CC[C@@H](C(=O)NC5CC5)C4)c4ccc(Cl)cc34)cc2)c1C` [Compound 188], the IC50 was determined as 550 nM.

`CCCC(=O)c1cnn(-c2ccc(NC(=O)c3cn(CC(=O)N4CCC(F)(F)C4)c4ccc(Cl)cc34)cc2)c1C` [Compound 189]: the IC50 amounted to 410 nM.
